Experimental data from US20240035071A1, “CATALYTIC DE-CROSSLINKING OF SAMPLES FOR IN SITU ANALYSIS” (10X Genomics, Inc., priority 2022, published 2024).

Legend:
[1] = system: FFPE human breast cancer, melanoma, lymph node, lung cancer, and normal lung tissues; assay: RCP/RNA transcript detection in de-crosslinked FFPE samples from various tissues; conditions: across the tissue types; for visualization of transcripts GAPDH/RPLPO or MALAT-I/ACTB (RCPs): 0 mM or 200 mM, 30 minutes, compared to de-crosslinking in a steamer; for RNA/protein visualization: overlaid images of RNA detection and protein detection
Procedure: The de-crosslinked and washed tissue samples can be immediately used for analyte detection. In some instances, circularizable probes (e.g., padlock probes) targeting MALAT-1/ACTB (nuclear/cytoplasmic) or GAPDH/RPLPO (cytoplasmic) RNA transcripts were added in hybridization buffers (e.g., including SSC and formamide) and incubated with the samples to allow hybridization of the circularizable probes to their target nucleic acids. In addition to a target hybridization region, each circularizable probe also contained a common anchor region and a barcode region. Then, the probe hybridization mixture was removed and the samples were washed. For ligation of the circularizable probes hybridized to their target nucleic acids, a ligation reaction mix (e.g., containing a SplintR® ligase buffer, RNase inhibitor and SplintR® ligase) and a rolling circle amplification (RCA) primer were added to the samples and incubated for probe circularization and RCA primer hybridization to the probes. The samples were washed and an RCA reaction mixture (containing Phi29 reaction buffer, dNTPs, Phi29 polymerase) was added and incubated for RCA of the circularized probes.
(§1) The samples were washed (e.g., in PBST) and detectable probes in a hybridization buffer (e.g., containing SSC and formamide) were hybridized to RCA products (RCPs) in the sample. The detectable probes included probes that hybridize to sequences (e.g., barcode sequences or anchor sequences) in the RCPs and comprise overhangs for hybridization of fluorescently labelled detection oligonucleotides. The samples were imaged in fluorescent microscope with 40× objective and the signals associated with the RCPs were quantified using a software. In some instances, the samples were also stained with DAPI and/or labelled antibodies, e.g., fluorescently labelled anti-Vimentin antibody or anti-panCK antibody. In some instances, once the samples were imaged to detect signals associated with the detectable probes or labelled antibodies, the samples were stripped (e.g., using a denaturing agent) and contacted with additional detectable probes or labelled antibodies for the next imaging round.
FFPE human breast cancer, melanoma, lymph node, lung cancer, and normal lung tissues were processed essentially as described in Example 1. Specifically, 2-amino-5-methylbenzoic acid (Compound 1) or (4-aminopyridin-3-yl)phosphonic acid (Compound 8) was used as the de-crosslinking agent and applied to de-paraffinized and re-hydrated samples in a buffer solution, such as a solution of citrate buffer at pH 6 or a solution of TE buffer at pH 9. […] Analytes in the de-crosslinked tissue samples were detected essentially as described in Example 2.

[2] = system: FFPE human breast cancer, melanoma, lymph node, lung cancer, and normal lung tissues; assay: anti-Vimentin antibody staining in de-crosslinked FFPE samples from various tissues; conditions: across the tissue types, compared to de-crosslinking in a steamer and heating at 95° C. in TE buffer
Source text: as §1
FFPE human breast cancer, melanoma, lymph node, lung cancer, and normal lung tissues were processed essentially as described in Example 1. […] Analytes in the de-crosslinked tissue samples were detected essentially as described in Example 2.

[3] = system: normal lung tissue samples; assay: RCP detection in catalytically de-crosslinked FFPE normal lung tissue samples; design: species or system human; conditions: compared to control samples de-crosslinked in a steamer (data not shown)
Procedure: FFPE human breast cancer, melanoma, lymph node, lung cancer, and normal lung tissues were processed essentially as described in Example 1. Specifically, 2-amino-5-methylbenzoic acid (Compound 1) or (4-aminopyridin-3-yl)phosphonic acid (Compound 8) was used as the de-crosslinking agent and applied to de-paraffinized and re-hydrated samples in a buffer solution, such as a solution of citrate buffer at pH 6 or a solution of TE buffer at pH 9. The samples were incubated under various de-crosslinking temperatures (e.g., 80° C. or 95° C.) for 30 minutes, using 0 mM or 200 mM of Compound 1 or Compound 8. Analytes in the de-crosslinked tissue samples were detected essentially as described in Example 2.
The RCPs were detected using detectable probes targeting barcode sequences for MALAT-I/ACTB or GAPDH/RPLPO or targeting the common anchor region in the RCPs (representative images in FIG. 8, left panel).

[4] = system: FFPE mouse brain tissues; assay: RCP signal detection in de-crosslinked FFPE mouse brain tissues; conditions: compared to Compound 1 in citrate buffer (pH 6.8)
Procedure: FFPE mouse brain tissues were processed essentially as described in Example 1, and gene expression analysis for RNA transcripts and protein analysis (e.g., anti-GFAP antibody staining) in the dentate gyrus (DG) region were performed essentially as described in Examples 2 and 3. Four de-crosslinking agent and buffer combinations were tested: Compound 1 in citrate buffer (pH 6.8), Compound 15 in citrate buffer (pH 6.8), Compound 18 (trans-4-hydroxy-L-proline) in citrate buffer (pH 6.8), and Compound 1 in PBS (pH 7.4).

[5] = system: FFPE human breast cancer tissues; assay: RCP detection (RCP count/μm^2 nuclei area) in catalytically de-crosslinked FFPE human breast cancer samples; conditions: for detection of RCPs (detected object counts per nucleic area, RCP count/μm^2 nuclei area): 100 mM, 80° C., 30 minutes, compared to control de-crosslinked in a steamer for 30 minutes using citrate buffer (pH 6)
Source text: A formalin-fixed, paraffin-embedded (FFPE) tissue sample was cut into thin tissue sections using a pre-warmed microtome. The sections were placed on slides and dried at a temperature higher than room temperature, followed by overnight drying at room temperature in a desiccator. Images of the sections were taken for record, e.g., in order to monitor tissue morphology and/or detachment during sample processing. In some instances, images of the sections taken after de-crosslinking were compared to those before de-crosslinking.
The slides were baked uncovered in an oven, and then calibrated to room temperature. The sections were de-paraffinized and dehydrated using xylene and absolute ethanol. The sections were then re-hydrated using an ethanol series (e.g., 96% ethanol followed by 70% ethanol), and then re-hydrated in nuclease free water (e.g., DEPC water). The slides were gently dried to allow application of a cassette to seal around the tissue sections, without letting the tissue section to dry completely.
The sections were then de-crosslinked using a catalyst disclosed herein in a buffer solution. In some instances, the a de-crosslinking buffer can function as an antigen retriever buffer. Then the sections were washed three times with RNase-free phosphate-buffered saline (PBS) or PBST (phosphate-buffered saline solution with a low-concentration detergent solution, e.g., 0.05% to 0.1% Tween™ 20) prior to application of labelling agents (e.g., detectable nucleic acid probes for nucleic acids and/or labelled antibodies for proteins) to the tissue samples.
FFPE human breast cancer tissues were sectioned to […] thickness, transferred to Superfrost© Plus slides, and processed essentially as described in Example 1. Specifically, 2-amino-5-methylbenzoic acid (Compound 1) was used as the de-crosslinking agent and applied to de-paraffinized and re-hydrated samples in a buffer solution, such as a solution of citrate buffer at pH 6 or a solution of Tris-EDTA (TE) buffer at pH 9. […]

[6] = system: FFPE human breast cancer tissues; assay: anti-panCK antibody staining in de-crosslinked FFPE human breast cancer samples; conditions: various concentrations in citrate or TE buffer; compared to control de-crosslinked in a steamer
Procedure: FFPE human breast cancer tissues were sectioned to […] thickness, transferred to Superfrost© Plus slides, and processed essentially as described in Example 1. Specifically, 2-amino-5-methylbenzoic acid (Compound 1) was used as the de-crosslinking agent and applied to de-paraffinized and re-hydrated samples in a buffer solution, such as a solution of citrate buffer at pH 6 or a solution of Tris-EDTA (TE) buffer at pH 9. The samples were incubated under various de-crosslinking temperatures (e.g., 80° C. or 95° C.) for various time periods (e.g., 15 minutes or 30 minutes). Different concentrations of the de-crosslinking agent in the buffer solutions were tested, including 0 mM, 50 mM, 100 mM, 200 mM, and 400 mM of Compound 1.
The samples were washed (e.g., in PBST) and detectable probes in a hybridization buffer (e.g., containing SSC and formamide) were hybridized to RCA products (RCPs) in the sample. The detectable probes included probes that hybridize to sequences (e.g., barcode sequences or anchor sequences) in the RCPs and comprise overhangs for hybridization of fluorescently labelled detection oligonucleotides. The samples were imaged in fluorescent microscope with 40× objective and the signals associated with the RCPs were quantified using a software. […]

[7] = system: FFPE human breast cancer samples; assay: RCP detection in FFPE human breast cancer samples de-crosslinked with additives; conditions: for detection of RCPs (detected object counts per nucleic area): 150 mM, 80° C., 30 minutes, compared to no additional additives or single additives
Procedure: (§2) FFPE human breast cancer samples sectioned to […] thickness were processed essentially as described in […]. Specifically, 2-amino-5-methylbenzoic acid (Compound 1) was used as the de-crosslinking agent and applied to de-paraffinized and re-hydrated samples in a buffer solution with various additives, such as 0.05% SDS, 0.2% SDS, 0.5% SDS, 0.05 M urea, 0.5 M urea, 0.2 μg/ml proteinase K, 0.5 μg/ml proteinase K, 1 μg/ml proteinase K, and combinations thereof. The samples were incubated at 80° C. for 30 minutes, using 150 mM of Compound 1. Analytes in the de-crosslinked tissue samples were detected essentially as described in Example 2 using circularizable probes (e.g., padlock probes) targeting ACTB, GAPDH, MALAT-1, RPLPO, Eef2, Ppib, POLR2A RNA transcripts. Detectable probes were hybridized to sequences (e.g., barcode sequences or anchor sequences) in the RCPs and comprised overhangs for hybridization of fluorescently labelled detection oligonucleotides. The samples were imaged in fluorescent microscope with 40× objective and the signals associated with the RCPs were quantified using a software.
FIG. 10A-10C show the detected object count per nucleic area (RCP count/μm^2 nuclei area) in cells of the human breast cancer samples treated with Compound 1 for de-crosslinking in the presence or absence of additives SDS, urea, and/or proteinase K as indicated. […] In addition, it was observed antibody staining (e.g., antibody positive signal intensity for Pan cytokeratin, Vimentin, and Ki67) was compatible with the catalytic de-crosslinking conditions with Compound 1 in the presence of urea and proteinase K. Tissue morphology was also observed to be preserved post workflow and detection as confirmed by H&E staining that was performed.

[8] = system: FFPE human breast cancer samples; assay: antibody staining (Pan cytokeratin, Vimentin, Ki67) in FFPE human breast cancer samples de-crosslinked with additives; conditions: in the presence of urea and proteinase K
Procedure: as §2
(§3) FIG. 10A-10C show the detected object count per nucleic area (RCP count/μm^2 nuclei area) in cells of the human breast cancer samples treated with Compound 1 for de-crosslinking in the presence or absence of additives SDS, urea, and/or proteinase K as indicated. […]

[9] = system: FFPE human breast cancer samples; assay: tissue morphology by H&E staining after de-crosslinking workflow with additives; conditions: post workflow and detection, confirmed by H&E staining
Procedure: as §2, §3

`Nc1ccncc1P(=O)(O)O` [Compound 8, (4-aminopyridin-3-yl)phosphonic acid] was tested, and the “visualization of transcripts GAPDH/RPLPO or MALAT-I/ACTB (RCPs)” value [1] was “enhanced visualization”, the RNA/protein visualization [1] was “enhanced RNA/protein visualization” and the anti-Vimentin antibody staining [2] was “enhanced anti-Vimentin antibody staining”. The “RCP densities (detected object count per nucleic area, RCP count/μm^2 nuclei area)” value [3] was “Higher RCP densities”.

`Nc1ccccc1P(=O)(O)O` [Compound 15, (2-aminophenyl)phosphonic acid] was tested, and the “signal density (detected object signal intensity above local background (mean))” value (“signal density” for short) ([4]; citrate buffer (pH 6.8)) was “improved signal density”.

For `O=C(O)[C@@H]1C[C@@H](O)CN1` [Compound 18, trans-4-hydroxy-L-proline], the “signal density” value ([4]; citrate buffer (pH 6.8)) was “improved signal density”.

For `Cc1ccc(N)c(C(=O)O)c1` [Compound 1, 2-amino-5-methylbenzoic acid], the “detection of RCPs (detected object counts per nucleic area, RCP count/μm^2 nuclei area)” value ([5]; TE buffer (pH 9)) was “significantly improve the detection of RCPs”, the “detection of RCPs (detected object counts per nucleic area, RCP count/μm^2 nuclei area)” value ([5]; citrate buffer (pH 6)) was “significantly improve the detection of RCPs” and the “sensitivity and RCP brightness” value ([5]; citrate buffer, between about 100 and about 200 mM) was “boost sensitivity and RCP brightness”. For the same molecule, the “antibody staining (antibody positive signal intensity), anti-panCK” value [6] was “may be improved”, the “visualization of transcripts GAPDH/RPLPO or MALAT-I/ACTB (RCPs)” value [1] was “enhanced visualization” and the RNA/protein visualization [1] was “enhanced RNA/protein visualization”. The anti-Vimentin antibody staining [2] was “enhanced anti-Vimentin antibody staining”, the “RCP densities (detected object count per nucleic area, RCP count/μm^2 nuclei area)” value [3] was “Higher RCP densities” and the “signal density” value ([4]; PBS (pH 7.4)) was “improved signal density”. For the same molecule, the “detection of RCPs (detected object counts per nucleic area)” value ([7]; in the presence of SDS and proteinase K) was “appeared to improve the detection of RCPs”, the “detection of RCPs (detected object counts per nucleic area)” value ([7]; in the presence of urea and proteinase K) was “appeared to improve the detection of RCPs” and the “puncta brightness and/or numbers detected” value ([7]; in the presence of both 0.5 M urea and 1 μg/ml proteinase K) was “increases in puncta brightness and/or numbers detected”. The “puncta brightness and/or numbers detected” value ([7]; in the presence of both 0.5 M urea with 0.5 μg/ml Proteinase K) was “increases in puncta brightness and/or numbers detected”, the “antibody staining (antibody positive signal intensity for Pan cytokeratin, Vimentin, and Ki67)” value [8] was “compatible” and the tissue morphology [9] was “preserved”.
